Results taken from patent publication US7989650B2, “Therapeutic delivery of carbon monoxide to extracorporeal and isolated organs” (hemoCORM Limited, priority 2002, dated 2011).

Columns and labels:
[1] = test system: deoxymyoglobin (deoxy-Mb); assay: Detection of CO release: conversion of deoxymyoglobin to carbonmonoxy myoglobin (MbCO), spectrophotometric; format: physicochemical
Procedure: The release of CO from CORM-3 or dCOMR-3 was assessed spectrophotometrically by measuring the conversion of deoxymyoglobin (deoxy-Mb) to carbonmonoxy myoglobin (MbCO) as previously described. The amount of MbCO formed was quantified by measuring the absorbance at 540 nm (extinction coefficient=[…]). Myoglobin solutions (66 μmol/L final concentration) were prepared fresh by dissolving the protein in 0.04 M phosphate buffer (pH 6.8). Sodium dithionite (0.1%) was added to convert myoglobin to deoxy-Mb prior to each reading.
When CORM-3 was prepared in distilled water and then added to the phosphate buffer solution containing Mb, a spectrum characteristic of MbCO was rapidly detected (FIG. 1B).

[2] = test system: isolated hearts from male Lewis rats; assay: Ischaemia-reperfusion model in isolated Langendorff-perfused hearts; design: species or system rat
Procedure: Isolated hearts from male Lewis rats (300-350 g) were perfused according to the Langendorff technique as previously described by our group. Briefly, hearts were rapidly excised and perfused at constant flow (11 ml/min) with Krebs-Henseleit buffer (in mM: 119 NaCl, 4.7 KCl, 2.5 CaCl2, 1.66 MgSO4, 24.9 NaHCO3, 1.18 KH2PO4, 5.55 glucose, 2.00 sodium pyruvate, 0.5 EGTA) bubbled with 95% O2 and 5% CO2 at 37° C. (pH 7.4). Coronary perfusion pressure (CPP) was continuously measured by a pressure transducer (Grass Instruments, Astromed, RI, USA) connected to the aortic cannula. A latex balloon filled with saline was inserted into the left ventricle through the atrium and connected by a catheter to a second pressure transducer. The balloon was inflated to provide an initial end-diastolic pressure (EDP) of 10 mmHg. Both transducers were connected to a computer and data were acquired with BioPac™ instrumentation and analyzed with the accompanying AcqKnowledge™ software (BIOPAC System Inc.). Left ventricular developed pressure (LVDP), heart rate (HR), maximal contraction (+dP/dt) and relaxation (−dP/dt) rates, CPP and EDP were continuously recorded throughout the period of perfusion.
Isolated hearts were allowed to equilibrate at constant flow for 30 min and then made globally ischaemic by interrupting the buffer perfusion. Ischaemic hearts were kept at 37° C. in the water-jacketed chamber for 30 min and then reperfused for 60 min. All the hemodynamic parameters were continuously monitored throughout the experimental protocol as reported above. Krebs buffer was collected for 10 min from the pulmonary artery prior to the ischaemic event and in the last 10 min of reperfusion for creatine kinase (CK) analysis. At the end of reperfusion, hearts were stained to assess tissue viability using tetrazolium red. In additional experiments, hearts made ischaemic were infused for the first 10 min of reperfusion with CORM-3 or dCORM-3 (10 μM final concentration) via a syringe pump connected to the side arm of the aortic cannula. To assess a possible role of mitochondrial ATP-dependent potassium channels (KATP) in cardioprotection mediated by CORM-3, control hearts or hearts receiving CORM-3 were pre-treated for 10 min prior to ischaemia with […] (5-HD, 50 μM final concentration), a specific blocker of mitochondrial KATP.
Hearts from each experimental group (n=5) were stained for tissue viability at the end of the reperfusion period. Hearts were perfused through a side arm of the aortic cannula for 20 min with tetrazolium red (3% w/v) in Krebs Henseleit buffer at 37° C. The tetrazolium salt stains the viable myocardium brick red, whereas the infarcted tissue remains unstained and appears white. After staining, hearts were removed and stored in 2% formalin in the dark prior to analysis. Hearts were carefully cut into 2-mm thick sections, scanned into a computer using an AGFA Arcus® II scanner and the total ischaemic size was determined by volumetric analysis software (Scion Image®, Scion Corporation, MA, USA). Cardiac muscle damage was assessed by measuring the release of creatine kinase (CK) into the perfusate using a commercially available spectrophotometric assay kit (DG147-A) from Sigma Diagnostic (Poole, Dorset).

[3] = dissolved in DMSO; cited from earlier work
[4] = test system: deoxymyoglobin (deoxy-Mb); settings: cited from earlier work
[5] = test system: pre-contracted aortic rings; settings: cited from earlier work
[6] = 10 μM infused for first 10 min of reperfusion, 30 min ischaemia, 60 min reperfusion
[7] = at the end of reperfusion, 10 μM infused for first 10 min of reperfusion
[8] = before ischaemia, hearts later reperfused with CORM-3

## NCC(=O)O.[CH+]=O.[CH+]=O.[CH+]=O.[Cl][Ru] [CORM-3, tricarbonylchloro-(glycinato)ruthenium(II)]
[1]; CORM-3 prepared in distilled water, added to phosphate buffer containing Mb
  CO liberated per mole of compound: 1 mol
[1]; addition of 40 μM CORM-3 prepared in distilled water, myoglobin 66 μmol/L, 0.04 M phosphate buffer pH 6.8
  formation of MbCO: 36.4 ± 0.9 µM
[1]; dissolved in water, left 24 h at room temperature
  ability to liberate CO (conversion of Mb to MbCO) after standing in water: retained its full ability to liberate CO
[1]; prepared in Krebs-Henseleit buffer, over time
  stability / ability to release CO in Krebs-Henseleit buffer: gradually decomposed over time and lost its ability to release CO
[2]; [6]
  maximal rate of contraction (+dP/dt), after ischaemia-reperfusion: 3726±542 mmHg/s
  maximal rate of relaxation (−dP/dt), after ischaemia-reperfusion: 2207±258 mmHg/s
[2]; after 60 min reperfusion, 10 μM infused for first 10 min of reperfusion, 30 min global ischaemia
  increase in left ventricular-developed pressure (LVDP) compared to baseline: 44%
[2]; [7]
  increase in coronary perfusion pressure (CPP): 13±2.2 mmHg
  increase in end diastolic pressure (EDP): 3±1.8 mmHg
[2]; [8]
  maximal rate of contraction (+dP/dt), baseline: 2099±99 mmHg/s
  maximal rate of relaxation (−dP/dt), baseline: 1432±149 mmHg/s
[2]; buffer collected 10 min prior to ischaemia, hearts later reperfused with CORM-3
  creatine kinase (CK) activity in buffer, before ischaemia: 6.5±2.3 U/L
[2]; end of reperfusion, 10 μM infused for first 10 min of reperfusion
  infarct size (tetrazolium red staining): 2.3±0.6%
[2]; hearts pre-treated 10 min prior to ischaemia with 5-HD 50 μM, CORM-3 10 μM at reperfusion
  protective effects on myocardial contractility (LVDP, +dP/dt, −dP/dt) and on EDP and CPP increases, with 5-HD pre-treatment: totally abolished
[2]; last 10 min of reperfusion, 10 μM infused for first 10 min of reperfusion
  creatine kinase (CK) activity in buffer, after reperfusion: 19.9±5.3 U/L

## [C-]#[O+].[C-]#[O+].[C-]#[O+].[C-]#[O+].[C-]#[O+].[C-]#[O+].[Cl][Ru][Cl].[Cl][Ru][Cl] [[Ru(CO)3Cl2]2, Tricarbonyldichloro ruthenium(II) dimer]
[3]
  CO liberation on dissolution: CO is liberated into solution

## [Fe(SPh)2(2,2′-bipyridine)(CO)2]
[4]
  release of CO to myoglobin in solution: not to release CO to myoglobin in solution
[5]
  dilatation of pre-contracted aortic rings: capable of promoting dilatation of pre-contracted aortic rings
